Laboratory results from patent US6048882A, “Prophylactic and therapeutic agent for hepatic diseases” (Nisshin Flour Milling Co., Ltd., priority 1995, dated 2000).
Counter-ions that a name gives are not always drawn. Like-named read-outs stand apart in the source and are kept apart here.

Experiments:
[1] = system: experimental hepatopathy models prepared by administering carbon tetrachloride; test: Inhibitory action on hepatopathy in hepatopathy models by carbon tetrachloride (lipid emulsion; serum GPT and GOT); type: in vivo, ddY strain male mice; conditions: Mus musculus, iv, 20 h, i.v., one hour before carbon tetrachloride; for inhibition in vivo at 0.001 mg/kg: dose 1 μg/kg; for inhibition in vivo at 0.01 mg/kg: dose 10 μg/kg; for inhibition in vivo at 0.0001 mg/kg: dose 0.1 μg/kg
Protocol: Carbon tetrachloride was diluted with olive oil to a concentration of 0.5% when administered. The present isoprenylamine derivatives were formulated into the lipid emulsions according to the method described in Pharmaceutical Example 8 and intravenously administered at a dose of 0.1-10 μg/kg one hour before the administration of carbon tetrachloride. 20 hours after the administration of carbon tetrachloride, blood samples were collected from animals under ether anesthesia and centrifuged. Then, serum GPT and GOT were determined and the respective inhibition rates were calculated on the bases of the serum GPT and GOT values obtained when the present isoprenylamine derivative was not administered being defined as 100, respectively.

[2] = system: experimental hepatopathy models prepared by D-galactosamine administration; test: Inhibitory action on hepatopathy in hepatopathy models by D-galactosamine (serum GPT and GOT); type: in vivo, Wistar strain male mice; conditions: iv, 24 h, 2 hours after D-galactosamine; for inhibition in vivo at 0.01 mg/kg / inhibition in vivo at 0.03 mg/kg: lipid emulsion, i.v.; for inhibition in vivo at 0.01 mg/kg: dose 10 μg/kg; for inhibition in vivo at 0.03 mg/kg: dose 30 μg/kg; for inhibition in vivo at 3 mg/kg: dissolved in distilled water, dose 3000 μg/kg
Protocol: (§1) In these tests, GPT (glutamic-pyruvic transaminase) and GOT (glutamic-oxaloacetic transaminase) were determined using kits for the determination of GPT and GOT upon the method by U. Lippi et al., Iatrozyme TA-Lq (available from Iatron Laboratories Inc.), wherein the NADH formed when enzymes act upon substrates can reduce nitrotetrazolium blue (NTB) via 1-methoxy-5-methylphenazinium methylsulfate (1-methoxy PMS) to form formazan, which is then subjected to colorimetric analysis at a wavelength of 560 nm.
Inhibitory action of lipid emulsions containing the present isoprenylamine derivatives was evaluated by inhibition rates of GPT and GOT in experimental hepatopathy models prepared by D-galactosamine administration.
The experimental hepatopathy model was prepared by intraperitoneal administration of D-galactosamine at 400 mg/kg to Wistar strain male […] weighing about 170 g. The present isoprenylamine derivative was formulated to a lipid emulsion according to the method described in Pharmaceutical Example 8, and was intravenously administered at a dose of 10-30 μg/kg 2 hours after the administration of D-galactosamine.
(§2) 24 hours after the D-galactosamine administration, blood samples were collected form animals under ether anesthesia and centrifuged. Then, serum GPT and GOT were determined and the respective inhibition rates were calculated on the bases of the serum GPT and GOT values obtained when the present isoprenylamine derivatives were not administered being defined as 100, respectively.
For comparison, glycyrrhizin ammonium (Tokyo Kasei Co.) dissolved in distilled water was administered in a similar manner to that for the isoprenylamine derivatives, blood sampling and determination were conducted and the serum GPT and GOT inhibition rates were calculated.

[3] = system: experimental hepatopathy models prepared by administering carbon tetrachloride; test: Inhibitory action on hepatopathy in hepatopathy models by carbon tetrachloride (suspension with 2% Tween 80; serum GPT and GOT); type: in vivo, ddY strain male mice; conditions: suspension with 2% Tween 80, i.v., dose 0.1 mg/kg, one hour before carbon tetrachloride
Protocol: as §1
Inhibitory actions of the present isoprenylamine derivatives was evaluated by inhibition rates of GPT and GOT in experimental hepatopathy models prepared by administering carbon tetrachloride.
The experimental hepatopathy model was prepared by intraperitoneal administration of 0.02 ml/kg carbon tetrachloride to ddY strain male mice (6 weeks old, body weight of about 30 g). Carbon tetrachloride was diluted with olive oil to a concentration of 0.5% when administered. […]
as §2, with “20” for “24”, “administration of carbon tetrachloride,” for “D-galactosamine administration,”, “from” for “form”, “Compound 6 was” for “the present isoprenylamine derivatives were”

CC(C)=CCC/C(C)=C/CC/C(C)=C/CC/C(C)=C/CNCc1ccc2c(c1)OCO2 [Compound 1, N-geranylgeranylpiperonylamine hydrochloride]
inhibition in vivo at 0.001 mg/kg ([1]; read-out: GOT inhibition): 13%
inhibition in vivo at 0.001 mg/kg ([1]; read-out: GPT inhibition): 21%

CC(C)=CCC/C(C)=C/CC/C(C)=C/CC/C(C)=C/CC/C(C)=C/CC/C(C)=C/CC/C(C)=C/CNCc1ccc2c(c1)OCO2 [Compound 4, N-farnesylgeranylgeranylpiperonylamine hydrochloride]
inhibition in vivo at 0.01 mg/kg ([2]; read-out: GOT inhibition): 31%
inhibition in vivo at 0.01 mg/kg ([2]; read-out: GPT inhibition): 30%
inhibition in vivo at 0.001 mg/kg ([1]; read-out: GOT inhibition): 28%
inhibition in vivo at 0.001 mg/kg ([1]; read-out: GPT inhibition): 22%

CC(C)=CCC/C(C)=C/CC/C(C)=C/CC/C(C)=C/CC/C(C)=C/CC/C(C)=C/CC/C(C)=C/CC/C(C)=C/CC/C(C)=C/CNCc1ccc2c(c1)OCO2 [Compound 6, N-solanesylpiperonylamine hydrochloride]
GOT inhibition [3]: 37%
GPT inhibition [3]: 34%
inhibition in vivo at 0.01 mg/kg ([2]; read-out: GOT inhibition): 40%
inhibition in vivo at 0.01 mg/kg ([2]; read-out: GPT inhibition): 40%
inhibition in vivo at 0.001 mg/kg ([1]; read-out: GOT inhibition): 50%
inhibition in vivo at 0.001 mg/kg ([1]; read-out: GPT inhibition): 40%

CC(C)=CCC/C(C)=C/CC/C(C)=C/CC/C(C)=C/CC/C(C)=C/CC/C(C)=C/CC/C(C)=C/CC/C(C)=C/CC/C(C)=C/CNCc1ccccc1 [Compound 7, N-solanesylbenzylamine hydrochloride]
inhibition in vivo at 0.001 mg/kg ([1]; read-out: GOT inhibition): 42%
inhibition in vivo at 0.001 mg/kg ([1]; read-out: GPT inhibition): 42%

CC(C)=CCC/C(C)=C/CC/C(C)=C/CC/C(C)=C/CC/C(C)=C/CC/C(C)=C/CC/C(C)=C/CC/C(C)=C/CC/C(C)=C/CNCc1ccc(O)cc1 [Compound 8, N-solanesyl-4-hydroxybenzylamine hydrochloride]
inhibition in vivo at 0.01 mg/kg ([1]; read-out: GOT inhibition): 25%
inhibition in vivo at 0.01 mg/kg ([1]; read-out: GPT inhibition): 22%

COc1ccc(CNC/C=C(\C)CC/C=C(\C)CC/C=C(\C)CC/C=C(\C)CC/C=C(\C)CC/C=C(\C)CC/C=C(\C)CC/C=C(\C)CCC=C(C)C)cc1OC [Compound 13, N-solanesylveratrylamine hydrochloride]
inhibition in vivo at 0.0001 mg/kg ([1]; read-out: GOT inhibition): 14%
inhibition in vivo at 0.0001 mg/kg ([1]; read-out: GPT inhibition): 21%

CC(C)=CCC/C(C)=C/CC/C(C)=C/CC/C(C)=C/CC/C(C)=C/CC/C(C)=C/CC/C(C)=C/CC/C(C)=C/CC/C(C)=C/CNCc1ccc2c(c1)OCO2 [Compound 15, N-solanesylpiperonylamine malate]
inhibition in vivo at 0.01 mg/kg ([1]; read-out: GOT inhibition): 18%
inhibition in vivo at 0.01 mg/kg ([1]; read-out: GPT inhibition): 24%

CC(C)=CCC/C(C)=C/CC/C(C)=C/CC/C(C)=C/CC/C(C)=C/CC/C(C)=C/CC/C(C)=C/CC/C(C)=C/CC/C(C)=C/CN(C)Cc1ccc2c(c1)OCO2 [Compound 19, N-methyl-N-solanesylpiperonylamine]
inhibition in vivo at 0.001 mg/kg ([1]; read-out: GOT inhibition): 43%
inhibition in vivo at 0.001 mg/kg ([1]; read-out: GPT inhibition): 31%

CC(C)=CCC/C(C)=C/CC/C(C)=C/CC/C(C)=C/CC/C(C)=C/CC/C(C)=C/CC/C(C)=C/CC/C(C)=C/CC/C(C)=C/CC/C(C)=C/CNCc1ccc2c(c1)OCO2 [Compound 20, N-decaprenylpiperonylamine hydrochloride]
inhibition in vivo at 0.01 mg/kg ([2]; read-out: GOT inhibition): 44%
inhibition in vivo at 0.01 mg/kg ([2]; read-out: GPT inhibition): 43%
inhibition in vivo at 0.0001 mg/kg ([1]; read-out: GOT inhibition): 53%
inhibition in vivo at 0.0001 mg/kg ([1]; read-out: GPT inhibition): 60%

CC(C)=CCC/C(C)=C/CC/C(C)=C/CC/C(C)=C/CC/C(C)=C/CC/C(C)=C/CC/C(C)=C/CC/C(C)=C/CC/C(C)=C/CC/C(C)=C/CC/C(C)=C/CNCc1ccc2c(c1)OCO2 [Compound 21, N-undecaprenylpiperonylamine hydrochloride]
inhibition in vivo at 0.001 mg/kg ([1]; read-out: GOT inhibition): 38%
inhibition in vivo at 0.001 mg/kg ([1]; read-out: GPT inhibition): 33%

CC(C)=CCC/C(C)=C/CC/C(C)=C/CC/C(C)=C/CC/C(C)=C/CC/C(C)=C/CC/C(C)=C/CC/C(C)=C/CC/C(C)=C/CNCc1cccs1 [Compound 25, N-solanesyl-2-thienylamine hydrochloride]
inhibition in vivo at 0.03 mg/kg ([2]; read-out: GOT inhibition): 32%
inhibition in vivo at 0.03 mg/kg ([2]; read-out: GPT inhibition): 30%

CC(C)=CCC/C(C)=C/CC/C(C)=C/CC/C(C)=C/CC/C(C)=C/CC/C(C)=C/CC/C(C)=C/CC/C(C)=C/CC/C(C)=C/CNCc1cccnc1 [Compound 26, N-solanesyl-3-pyridylmethylamine dihydrochloride]
inhibition in vivo at 0.03 mg/kg ([2]; read-out: GOT inhibition): 40%
inhibition in vivo at 0.03 mg/kg ([2]; read-out: GPT inhibition): 35%

CC1(C)[C@@H](O[C@H]2O[C@H](C(=O)O)[C@@H](O)[C@H](O)[C@H]2O[C@@H]2O[C@H](C(=O)O)[C@@H](O)[C@H](O)[C@H]2O)CC[C@]2(C)[C@H]3C(=O)C=C4[C@@H]5C[C@@](C)(C(=O)O)CC[C@]5(C)CC[C@@]4(C)[C@]3(C)CC[C@@H]12 [Glycyrrhizin ammonium, glycyrrhizin ammonium, reference compound]
inhibition in vivo at 3 mg/kg ([2]; read-out: GOT inhibition): 22%
inhibition in vivo at 3 mg/kg ([2]; read-out: GPT inhibition): 25%
